Among the data in PubChem BioAssay AID623910 (NMMLSC, 2012) are plasma protein binding values, retold here.

The series relates to mouse and human plasma, RED dialysis, LC/MS/MS, 4 h. Description: fraction of compound bound to plasma proteins – biochemical, mouse and human plasma, ADME assay for GPR30 and estrogen receptor ligands, late-stage follow-up (AID 623910).

For `CC(=O)c1ccc2c(c1)[C@@H]1C=CC[C@@H]1[C@H](c1cc3c(cc1Br)OCO3)N2`, the plasma protein binding was 99.8% (at 1 µM); 99.8% (human plasma binding, at 10 µM); 99.8% (mouse plasma binding, at 1 µM); 99.5% (mouse plasma binding, at 10 µM).
